Values quoted from earlier work, collected in patent US4833125A, “Method of increasing bone mass” (The General Hospital Corporation, priority 1987, dated 1989).

Tested on: osteoporosis in humans
Details: hPTH (1-34) alone, Reeve et al. 1980

Question: Which axial trabecular bone does the source give for “hPTH (1-34): fragment of human parathyroid hormone, first thirty-four amino acid residues, given alone in cited trial (SVSEIQLMHNLGKHLNSMERVEWLRKKLQDVHNF; Parathyroid hormone; UniProt P01270 32-65, looked up, fragment)” here?
Answer: considerable increase

Question: What about the “calcium retention, and hence total bone mass” value of the same substance?
Answer: improved in only about half of these patients
